Results: PubChem BioAssay AID330 (DTP/NCI, 2004)
Values joined by “and” are separate entries in the source; they are usually repeats but may differ in a detail not shown here. Equal entries are not always repeated. Inconclusive results and toxic doses are left out. Rule for the calls: active = survival T/C of 150% or more; inactive = T/C below 125% in these data. Square brackets hold non-standard residues; d marks the D form. Peptide text beside a SMILES is read from it. * marks the point of attachment. ξ: configuration not given here. Cbz = O=C(OCc1ccccc1)*; ξNle = CCCCC(N)C(=O)O

System: P388 leukemia ip, CD2F1 mice, survival T/C
Assay: NCI In Vivo Anticancer Drug Screen. Data for tumor model P388 Leukemia (intraperitoneal) in CD2F1 (CDF1) mice
Conditions: endpoint: median survival time, higher = longer survival
Method in brief: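 Mice carrying the transplanted tumor received test compound or vehicle. Survival was recorded in each group, and the value is the treated-group measurement divided by that of the vehicle-treated control group.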

[1] = dose: 60.0 mg/kg/injection, schedule: Q01DX005 (ip), vehicle: saline with Tween-80
[2] = dose: 120.0 mg/kg/injection, schedule: Q01DX005 (ip), vehicle: saline with Tween-80
[3] = dose: 50.0 mg/kg/injection, schedule: Q01DX005 (ip), vehicle: Klucel (hydroxypropylcellulose) (HPC)
[4] = dose: 100.0 mg/kg/injection, schedule: Q01DX005 (ip), vehicle: Klucel (hydroxypropylcellulose) (HPC)
[5] = dose: 50.0 mg/kg/injection, schedule: Q01DX005 (ip), vehicle: saline with Tween-80
[6] = dose: 100.0 mg/kg/injection, schedule: Q01DX005 (ip), vehicle: saline with Tween-80
[7] = dose: 200.0 mg/kg/injection, schedule: Q01DX005 (ip), vehicle: saline with Tween-80
[8] = dose: 50.0 mg/kg/injection, schedule: Q01DX009 (ip), vehicle: saline
[9] = dose: 100.0 mg/kg/injection, schedule: Q01DX009 (ip), vehicle: saline
[10] = dose: 240.0 mg/kg/injection, schedule: Q01DX005 (ip), vehicle: saline with Tween-80
[11] = dose: 50.0 mg/kg/injection, schedule: Q01DX009 (ip), vehicle: saline with Tween-80
[12] = dose: 100.0 mg/kg/injection, schedule: Q01DX009 (ip), vehicle: saline with Tween-80
[13] = dose: 200.0 mg/kg/injection, schedule: Q01DX009 (ip), vehicle: saline with Tween-80
[14] = dose: 200.0 mg/kg/injection, schedule: Q01DX009 (ip), vehicle: saline
[15] = dose: 50.0 mg/kg/injection, schedule: Q01DX005 (ip), vehicle: saline
[16] = dose: 100.0 mg/kg/injection, schedule: Q01DX005 (ip), vehicle: saline
[17] = dose: 60.0 mg/kg/injection, schedule: Q01DX005 (ip), vehicle: Klucel (hydroxypropylcellulose) (HPC)
[18] = dose: 120.0 mg/kg/injection, schedule: Q01DX005 (ip), vehicle: Klucel (hydroxypropylcellulose) (HPC)
[19] = dose: 240.0 mg/kg/injection, schedule: Q01DX005 (ip), vehicle: Klucel (hydroxypropylcellulose) (HPC)

Measured: T/C

NC(=O)N/N=C1\CCn2cccc21
inactive: [1] 92 % of control | [2] 95 % of control

Nc1nnn(/N=C\c2ccccc2)n1
inactive: [3] 92 % of control | [4] 92 % of control

CCCCC1CN1C(=N)OCC (configuration not stated)
inactive: dose: 15.0 mg/kg/injection, schedule: Q01DX005 (ip), vehicle: saline with Tween-80 100 % of control | dose: 25.0 mg/kg/injection, schedule: Q01DX005 (ip), vehicle: saline 100 % of control | dose: 30.0 mg/kg/injection, schedule: Q01DX005 (ip), vehicle: saline with Tween-80 96 % of control | [1] 101 % of control and 95 % of control

CSC(=S)/N=c1\ccccn1C
inactive: dose: 25.0 mg/kg/injection, schedule: Q04DX002 (ip), vehicle: saline with Tween-80 102 % of control | dose: 50.0 mg/kg/injection, schedule: Q04DX002 (ip), vehicle: saline with Tween-80 99 % of control | dose: 100.0 mg/kg/injection, schedule: Q04DX002 (ip), vehicle: saline with Tween-80 102 % of control

O=c1c2ccccc2nc(-c2ccc(Cl)cc2)n1O
inactive: [5] 92 % of control | [6] 88 % of control

CCCCN1C(=O)NC(C)C1=O (configuration not stated)
inactive: [5] 99 % of control | [6] 108 % of control | [7] 103 % of control

O=C(NCCCCCNC(=O)C12CC3CC(CC(C3)C1)C2)C12CC3CC(CC(C3)C1)C2
inactive: [3] 90 % of control | [5] 102 % of control | [4] 89 % of control | [6] 105 % of control | [7] 95 % of control

CCCCCCCCCCCCCCC(Br)C(=O)O (configuration not stated)
inactive: [8] 101 % of control | [9] 103 % of control

Cc1ccc(-c2cn3nc(-c4ccc5c(c4)OCO5)sc3n2)cc1
inactive: [1] 92 % of control | [2] 99 % of control and 89 % of control | [10] 87 % of control

CCCCNC(=O)CCC
inactive: [11] 88 % of control | [12] 94 % of control | [13] 95 % of control | dose: 400.0 mg/kg/injection, schedule: Q01DX009 (ip), vehicle: saline with Tween-80 97 % of control

CC(CC(=O)c1ccccc1)=NCCN=C(C)CC(=O)c1ccccc1.[Cl][Sn][Cl]
inactive: dose: 100.0 mg/kg/injection, schedule: Q01DX001 (ip), vehicle: Klucel (hydroxypropylcellulose) (HPC) 97 % of control | dose: 200.0 mg/kg/injection, schedule: Q01DX001 (ip), vehicle: Klucel (hydroxypropylcellulose) (HPC) 102 % of control | dose: 400.0 mg/kg/injection, schedule: Q01DX001 (ip), vehicle: Klucel (hydroxypropylcellulose) (HPC) 101 % of control

CSc1cccc([N+](=O)[O-])c1
inactive: [9] 95 % of control | [14] 87 % of control

CN1NC(C)(c2ccccn2)SC1=S (configuration not stated)
inactive: [11] 98 % of control | [12] 91 % of control | [13] 90 % of control

Cc1ccccc1-n1c(=S)n(-c2ccccn2)c2nc3ccccc3nc1/c2=N/Nc1ccccn1
inactive: [5] 110 % of control | [6] 97 % of control

CN1C(=O)/C(=C\c2ccccc2)N=C(c2ccccc2)c2cc(Cl)ccc21
inactive: dose: 25.0 mg/kg/injection, schedule: Q01DX005 (ip), vehicle: saline with Tween-80 110 % of control | [5] 96 % of control | [6] 91 % of control

CC1OC(OCc2ccc3c(c2)C(=O)c2ccccc2C3=O)CC(N)C1O (configuration not stated)
inactive: dose: 1.56 mg/kg/injection, schedule: Q01DX009 (ip), vehicle: water 105 % of control | dose: 3.12 mg/kg/injection, schedule: Q01DX009 (ip), vehicle: water 104 % of control | dose: 6.25 mg/kg/injection, schedule: Q01DX009 (ip), vehicle: water 100 % of control | dose: 12.5 mg/kg/injection, schedule: Q01DX009 (ip), vehicle: water 100 % of control | dose: 25.0 mg/kg/injection, schedule: Q01DX009 (ip), vehicle: water 103 % of control | dose: 50.0 mg/kg/injection, schedule: Q01DX009 (ip), vehicle: water 92 % of control

COC(=O)NC1CCC(=O)N1Cc1ccccc1 (configuration not stated)
inactive: [1] 96 % of control | [2] 94 % of control | [10] 102 % of control

Cc1ccc(C2CNC(=S)S2)cc1 (configuration not stated)
inactive: dose: 50.0 mg/kg/injection, schedule: Q01DX009 (ip), vehicle: DMSO 92 % of control | dose: 100.0 mg/kg/injection, schedule: Q01DX009 (ip), vehicle: DMSO 98 % of control | dose: 200.0 mg/kg/injection, schedule: Q01DX009 (ip), vehicle: DMSO 98 % of control

Cc1cccc(N2CCN(C(=O)/C(=C/c3ccccc3)NC(=O)c3ccccc3)CC2)c1
inactive: [5] 93 % of control | [6] 89 % of control

Cc1cnc2cc(Cl)ccc2c1NCCNCCO
inactive: [15] 119 % of control | [16] 119 % of control

CC(=O)C1CCC(=O)N1C(C)=O (configuration not stated)
inactive: [8] 100 % of control | [9] 106 % of control | [14] 114 % of control

Cc1cc(S(=O)(=O)[O-])ccc1-n1nc(C)[c-](N=Nc2cc(S(=O)(=O)[O-])ccc2C(=O)[O-])c1=O.[Cr+3].[Na+].[OH-] (configuration not stated)
inactive: [8] 104 % of control | [9] 104 % of control | [14] 108 % of control

CCOC(=O)c1cnc(NCCCCCCCCNc2ncc(C(=O)OCC)c(=O)[nH]2)[nH]c1=O
inactive: [8] 103 % of control | [9] 102 % of control | [14] 90 % of control and 97 % of control

CCOC(=O)c1cn(C2OC(CO)C(O)C2O)c(=O)nc1N (configuration not stated)
inactive: dose: 50.0 mg/kg/injection, schedule: Q04DX003 (ip), vehicle: saline 99 % of control | dose: 100.0 mg/kg/injection, schedule: Q04DX003 (ip), vehicle: saline 100 % of control | dose: 200.0 mg/kg/injection, schedule: Q04DX003 (ip), vehicle: saline 100 % of control | dose: 400.0 mg/kg/injection, schedule: Q04DX003 (ip), vehicle: saline 102 % of control

CCCCCC(=O)NCC(=O)OC
inactive: [15] 100 % of control | [16] 101 % of control | dose: 200.0 mg/kg/injection, schedule: Q01DX005 (ip), vehicle: saline 100 % of control

O=C1S/C(=C2\C(=O)N(CN3CCCCC3)c3ccc(Br)cc32)C(=O)N1CN1CCCCC1
inactive: [17] 100 % of control | [18] 101 % of control | [19] 99 % of control

COc1ccc2c(=O)c(-c3cc4c(cc3OC)OCO4)coc2c1
inactive: dose: 8.0 mg/kg/injection, schedule: Q01DX005 (ip), vehicle: Klucel (hydroxypropylcellulose) (HPC) 88 % of control | dose: 16.0 mg/kg/injection, schedule: Q01DX005 (ip), vehicle: Klucel (hydroxypropylcellulose) (HPC) 86 % of control

COC(=O)c1csc(-c2ccc(CO)o2)n1
inactive: [5] 105 % of control | [6] 98 % of control | [7] 93 % of control

CCCCC(NC(=O)OCc1ccccc1)C(=O)NCC(=O)OC (configuration not stated) (Cbz-[ξNle]-Gly-OMe)
inactive: [5] 99 % of control | [6] 100 % of control | [7] 99 % of control

O=C1OC(=O)C2C3c4ccccc4C(c4ccccc43)C12 (configuration not stated)
inactive: [5] 115 % of control and 117 % of control | [6] 110 % of control and 121 % of control | [7] 120 % of control and 122 % of control | dose: 400.0 mg/kg/injection, schedule: Q01DX005 (ip), vehicle: saline with Tween-80 121 % of control

c1cc[n+](CCC[n+]2ccccc2)cc1
inactive: [8] 98 % of control | [9] 97 % of control | [14] 100 % of control

O=P1(C(Cl)(Cl)Cl)NNP(=O)(C(Cl)(Cl)Cl)NN1 (configuration not stated)
inactive: [17] 104 % of control | [18] 101 % of control | [19] 107 % of control

CCCCCCCCCCCCCN1CCS(=O)(=O)CC1
inactive: dose: 50.0 mg/kg/injection, schedule: Q01DX009 (ip), vehicle: Klucel (hydroxypropylcellulose) (HPC) 98 % of control | dose: 100.0 mg/kg/injection, schedule: Q01DX009 (ip), vehicle: Klucel (hydroxypropylcellulose) (HPC) 94 % of control | dose: 200.0 mg/kg/injection, schedule: Q01DX009 (ip), vehicle: Klucel (hydroxypropylcellulose) (HPC) 89 % of control

ClCc1ccc2ccc3ccc(CCl)nc3c2n1
inactive: [1] 103 % of control | [2] 100 % of control | [10] 104 % of control

NC(Cc1ccc(O)cc1)c1nn[nH]n1 (configuration not stated)
inactive: dose: 25.0 mg/kg/injection, schedule: Q01DX009 (ip), vehicle: saline with Tween-80 114 % of control | [11] 100 % of control | [12] 99 % of control

NCC1CC2c3ccccc3C1c1ccccc12 (configuration not stated)
inactive: dose: 12.5 mg/kg/injection, schedule: Q01DX005 (ip), vehicle: Klucel (hydroxypropylcellulose) (HPC) 103 % of control | dose: 25.0 mg/kg/injection, schedule: Q01DX005 (ip), vehicle: Klucel (hydroxypropylcellulose) (HPC) 97 % of control | [3] 99 % of control and 95 % of control | [4] 106 % of control

CCCCC(C)(CN(C)C)C(=O)/C=C/c1ccccc1 (configuration not stated)
inactive: [8] 108 % of control | [9] 115 % of control | [14] 86 % of control
